Laboratory results from patent US6469003B1, “Pyridazinone derivatives” (Nihon Nohyaku Co., Ltd., priority 1998, dated 2002).
pIC50: −log10 of the molar value.

System: neutrophils isolated from human peripheral blood
Experiment: Test of neutrophil adhesion inhibitory activity (fMLP-induced adhesion to keyhole limpet hemocyanin-coated plate)
Format: cell-based
Settings: Neutrophil, fluorescence-labeled, fMLP final concentration of 50 nM, plate coated with keyhole limpet hemocyanin, 37° C., read-out: Test of neutrophil adhesion inhibitory (50% inhibition concentration) IC50
Method: Test Example (Test of Neutrophil Adhesion Inhibitory Activity)
To a 96 hole culture plate coated with keyhole limpet hemocyanin were added Dulbecco modified Eagle's media (DMEM, 25 μl) containing various concentrations of the test substance. The neutrophils isolated from human peripheral blood were labeled with fluorescence by means of 5,6-carboxyfluorescein diacetate, suspended into DMEM in a concentration of 1×10^6 cells/ml, and inoculated to the above plate in an amount of 50 μl. Then, after the addition of 25 μl of formylmethionyl-leucyl-phenylalanine (hereinafter referred to as “fMLP”) (final concentration of 50 nM), the cells were cultured at 37° C. for a certain period of time to induce the adhesion of the neutrophils to the plate. After culturing, the plate was washed with phosphate-buffered physiological saline to remove the neutrophils which were not adhered. The adhered neutrophils were dissolved and then the fluorescence intensity was measured. Using the data of a non-stimulated group where the stimulation with fMLP was not carried out and an fMLP-stimulated group where the stimulation was carried out, the adhesion inhibition rate at each concentration of the test substance was determined according to the following equation. From the concentration-inhibition curve, 50% inhibitory concentration (IC50) was calculated.
Adhesion inhibition rate (%)=(Fmax−Fx)/(Fmax−Fo)×100
Fx: the fluorescence intensity of the group treated with a test substance
Fmax: the fluorescence intensity of the fMLP-stimulated group
Fo: the fluorescence intensity of the non-stimulated group
In the case of `CC(=O)c1nn(-c2cccc(Cl)c2)c(=O)c(Sc2ccccc2)c1C` [Compound 1-64, 6-acetyl-2-(3-chlorophenyl)-5-methyl-4-phenylthio-3(2H)-pyridazinone], the pIC50 was 8.40. `CC(=O)c1nn(-c2cccc(Cl)c2)c(=O)c(S(=O)(=O)c2ccccc2)c1C` [Compound 1-83, 6-acetyl-2-(3-chlorophenyl)-5-methyl-4-phenylsulfonyl-3(2H)-pyridazinone] showed a pIC50 of 7.92. With `CC(=O)c1nn(-c2cccc(Cl)c2)c(=O)c(-c2cccs2)c1C` [Compound 1-97, 6-acetyl-2-(3-chlorophenyl)-5-methyl-4-(2-thienyl)-3(2H)-pyridazinone] the pIC50 was 7.96. `Cc1c(C(C)O)nn(-c2cccc(Cl)c2)c(=O)c1Sc1ccccc1` (centres unmarked) [Compound 6-01, 2-(3-chlorophenyl)-6-(1-hydroxyethyl)-5-methyl-4-phenylthio-3(2H)-pyridazinone] gave a pIC50 of 8.05.

Same assay, conditions: fluorescence-labeled, fMLP final concentration of 50 nM, plate coated with keyhole limpet hemocyanin, 37° C., read-out: Test of neutrophil adhesion inhibitory (50% inhibition concentration) IC50
`CC(=O)c1nn(-c2cccc(Cl)c2)c(=O)c(Sc2ccccc2Cl)c1C` [Compound 1-01] gave a pIC50 of 7.80. `CC(=O)c1nn(-c2cccc(Cl)c2)c(=O)c(Sc2ccc(Cl)cc2)c1C` [Compound 1-03] showed a pIC50 of 7.57. Compound `COc1ccccc1Sc1c(C)c(C(C)=O)nn(-c2cccc(Cl)c2)c1=O` [Compound 1-04] has a pIC50 of 6.21. Work on `COc1cccc(Sc2c(C)c(C(C)=O)nn(-c3cccc(Cl)c3)c2=O)c1` [Compound 1-05] yielded a pIC50 of 7.49. Compound `COc1ccc(Sc2c(C)c(C(C)=O)nn(-c3cccc(Cl)c3)c2=O)cc1` [Compound 1-06] has a pIC50 of 7.40. With `CC(=O)c1nn(-c2cccc(Cl)c2)c(=O)c(Sc2ccc(F)cc2)c1C` [Compound 1-07] the pIC50 was 7.70. With `CC(=O)c1nn(-c2cccc(Cl)c2)c(=O)c(Sc2ccc(C)cc2)c1C` [Compound 1-08] the pIC50 was 6.86. For `CC(=O)c1nn(-c2cccc(Cl)c2)c(=O)c(Sc2ccc([N+](=O)[O-])cc2)c1C` [Compound 1-10], the pIC50 was 7.03. With `CC(=O)c1nn(-c2cccc(Cl)c2)c(=O)c(Sc2ccccn2)c1C` [Compound 1-11] the pIC50 was 7.10. For `CSc1c(C)c(C(C)=O)nn(-c2cccc(Cl)c2)c1=O` [Compound 1-15], the pIC50 was 7.24. For `CC(=O)c1nn(-c2cccc(Cl)c2)c(=O)c(SC(C)(C)C)c1C` [Compound 1-17], the pIC50 was 7.72. Work on `CC(=O)c1nn(-c2ccc(F)cc2)c(=O)c(Sc2ccc(F)cc2)c1C` [Compound 1-20] yielded a pIC50 of 8.30. Work on `CC(=O)c1nn(-c2ccc(F)cc2)c(=O)c(Sc2ccccn2)c1C` [Compound 1-21] yielded a pIC50 of 6.71. Compound `CC(=O)c1nn(-c2ccc(F)cc2)c(=O)c(Sc2cccnc2)c1C` [Compound 1-22] has a pIC50 of 8.05. `CC(=O)c1nn(-c2ccc(F)cc2)c(=O)c(Sc2cccnc2)c1C` [Compound 1-23] gave a pIC50 of 8.22. With `CC(=O)c1nn(-c2ccc(F)cc2)c(=O)c(Sc2ccncc2)c1C` [Compound 1-24] the pIC50 was 7.85. In the case of `CC(=O)c1nn(-c2ccc(F)cc2)c(=O)c(Sc2ccncc2)c1C` [Compound 1-25], the pIC50 was 8.00. Compound `CC(=O)c1nn(-c2cccnc2)c(=O)c(Sc2ccc(F)cc2)c1C` [Compound 1-31] has a pIC50 of 7.26. `CC(=O)c1nn(-c2cccnc2)c(=O)c(Sc2ccncc2)c1C` [Compound 1-32] showed a pIC50 of 6.78. With `CC(=O)c1nn(-c2cccnc2)c(=O)c(Sc2ccccc2)c1C` [Compound 1-68] the pIC50 was 8.15. For `CC(=O)c1nn(-c2ccc(Cl)cc2)c(=O)c(Sc2ccccc2)c1C` [Compound 1-69], the pIC50 was 6.65. Compound `CC(=O)c1nn(-c2cccc(Cl)c2)c(=O)c(Oc2ccccc2)c1C` [Compound 1-70] has a pIC50 of 7.74. For `CC(=O)c1nn(-c2cccc(Cl)c2)c(=O)c(Oc2ccc(F)cc2)c1C` [Compound 1-73], the pIC50 was 7.49. In the case of `CC(=O)c1nn(-c2cccc(F)c2)c(=O)c(Oc2ccc(F)cc2)c1C` [Compound 1-74], the pIC50 was 7.32. In the case of `O=C(O)c1cc(CSc2ccc(F)cc2)c(=O)n(-c2cccc(Cl)c2)n1` [Compound 1-80, 1-(3-chlorophenyl)-5-(4-fluorophenylthio)-methyl-6-oxohydropridazin-3-carboxylic acid], the pIC50 was 6.18. Work on `CC(=O)c1nn(-c2cccc(Cl)c2)c(=O)c([S+]([O-])c2ccccc2)c1C` (centres unmarked) [Compound 1-84] yielded a pIC50 of 8.00. Compound `CC(=O)c1nn(-c2cccc(F)c2)c(=O)c(-c2cccs2)c1C` [Compound 1-98] has a pIC50 of 6.18. With `CC(=O)c1nn(-c2ccc(F)cc2)c(=O)c(-c2cccs2)c1C` [Compound 1-100] the pIC50 was 6.39. `CC(=O)c1nn(-c2cccnc2)c(=O)c(-c2cccs2)c1C` [Compound 1-102] gave a pIC50 of 6.51. With `CC(=O)c1nn(-c2ccc(F)cc2)c(=O)c(OCc2ccccn2)c1C` [Compound 1-113] the pIC50 was 6.45. With `CC(=O)c1nn(-c2ccc(F)cc2)c(=O)c(OCc2ccncc2)c1C` [Compound 1-115] the pIC50 was 7.36. `CC(=O)c1nn(-c2ccc(F)cc2)c(=O)c(OCc2cc[n+]([O-])cc2)c1C` [Compound 1-130, 6-acetyl-2-(4-fluorophenyl)-5-methyl-4-((4-pyridyl N-oxide)methoxy)-3(2H)-pyridazinone] gave a pIC50 of 6.86. `CC(=O)c1nn(-c2ccc[n+]([O-])c2)c(=O)c(Sc2ccc(F)cc2)c1C` [Compound 1-134, 6-acetyl-4-(4-fluorophenylthio)-5-methyl-2-(3-pyridyl N-oxide)-3(2H)-pyridazinone] showed a pIC50 of 6.33. With `CC(=O)Nc1ccc(Sc2c(C)c(C(C)=O)nn(-c3ccc[n+]([O-])c3)c2=O)cc1` [Compound 1-151] the pIC50 was 6.01. For `Cc1c(C(C)O)nn(-c2ccc(F)cc2)c(=O)c1Sc1ccncc1` (centres unmarked) [Compound 6-02], the pIC50 was 6.51.

System: not given
Experiment: not given
Settings: not given
With `CC(=O)c1nn(-c2ccc(F)cc2)c(=O)c(OCc2cccnc2)c1C.Cl` the melting point was 153 to 156 °C. With `CC(=O)c1nn(-c2ccc(Cl)cc2)c(=O)c(Sc2ccc(Cl)cc2)c1C` [Compound 1-29, 6-acetyl-2-(4-chlorophenyl)-4-(4-chlorophenylthio)-5-methyl-3(2H)-pyridazinone] the melting point was 165 to 166 °C. Compound `CC(=O)c1nn(-c2cccc(Cl)c2)c(=O)c(Sc2ccccc2)c1C` [Compound 1-64, 6-acetyl-2-(3-chlorophenyl)-5-methyl-4-phenylthio-3(2H)-pyridazinone] has a melting point of 99 to 100 °C. For `CC(=O)c1nn(-c2cccc(Cl)c2)c(=O)c(S(=O)(=O)c2ccccc2)c1C` [Compound 1-83, 6-acetyl-2-(3-chlorophenyl)-5-methyl-4-phenylsulfonyl-3(2H)-pyridazinone], the melting point was 175 to 176 °C. `CC(=O)c1nn(-c2cccc(Cl)c2)c(=O)c(-c2cccs2)c1C` [Compound 1-97, 6-acetyl-2-(3-chlorophenyl)-5-methyl-4-(2-thienyl)-3(2H)-pyridazinone] gave a melting point of 116 to 117 °C. `CC(=O)c1nn(-c2cccc(Cl)c2)c(=O)c(C(N)=S)c1C` [Compound 1-153, 6-acetyl-4-(aminothioxomethyl)-2-(3-chlorophenyl)-5-methyl-3(2H)-pyridazinone] showed a melting point of 195 to 197 °C. In the case of `CC(=O)c1nn(-c2cccc(Cl)c2)c(=O)c(-c2nccs2)c1C` [Compound 1-155, 6-acetyl-2-(3-chlorophenyl)-5-methyl-4-(1,3-thiazol-2-yl)-3(2H)-pyridazinone], the melting point was 158 to 160 °C. Compound `CC(=O)c1nn(-c2ccc(F)cc2)c(=O)c(Sc2ccc(NS(C)(=O)=O)cc2)c1C` [Compound 4-01, 6-acetyl-2-(4-fluorophenyl)-5-methyl-4-(4-methylsulfonylaminophenylthio)-3(2H)-pyridazinone] has a melting point of 182 to 184 °C. In the case of `CC(=O)c1nn(-c2ccc(F)cc2)c(=O)c(Sc2ccc(N(C)C)cc2)c1C` [Compound 4-04, 6-acetyl-4-(4-dimethylaminophenylthio)-2-(4-fluorophenyl)-5-methyl-3(2H)-pyridazinone], the melting point was 172 to 174 °C. Work on `CC(=O)c1nn(-c2ccc(F)cc2)c(=O)c(SCCN2CCOCC2)c1C` [Compound 5-04, 6-acetyl-2-(4-fluorophenyl)-5-methyl-4-(2-morpholin-4-ylethylthio)-3(2H)-pyridazinone] yielded a melting point of 92 to 93 °C. `Cc1c(C(C)O)nn(-c2cccc(Cl)c2)c(=O)c1Sc1ccccc1` (centres unmarked) [Compound 6-01, 2-(3-chlorophenyl)-6-(1-hydroxyethyl)-5-methyl-4-phenylthio-3(2H)-pyridazinone] showed a melting point of 180 to 182 °C.
